The values below are quoted from earlier work in US20180369425A1, “LINKED AND OTHER pH-TRIGGERED COMPOUNDS” (priority 2017, published 2018).

The conditions of series [1]: solvents listed; cited from earlier work.
The test system of another series is HeLa cells. The following applies: two hours, up to 2 μM; cited from earlier work.

Take `C#CCNC(=O)CCCCC[N+]1=C(/C=C/C=C/C=C/C=C2\N(CCCCS(=O)(=O)[O-])c3ccc4ccccc4c3C2(C)C)C(C)(C)c2c1ccc1ccccc21` [ICG-alkyne]: the Solubility result in series [1] is reported as “DMSO, DMF, Acetonitrile, Methanol”.
Consider amanitin, for which the “cell death with amanitin alone” value with HeLa cells is recorded as “does not induce cell death”.
